The source of these data is paper PMC11459967 (Antimicrobial Agents and Chemotherapy, 2024).

The target of one test is SARS-CoV-2 Mpro (Severe acute respiratory syndrome coronavirus 2, UniProt P0DTC1). In words: biochemical. It counts as biochemical.
Test [1] deals with SARS-CoV-2 (USA-WA1/2020 variant). In words: Cytopathic effect (CPE) live virus cell viability assay in Vero-E6 cells. Type of test: cell-based. As to conditions: for EC50: Severe acute respiratory syndrome coronavirus 2, Vero C1008, 96 h, read-out: EC50 viral CPE assay. A general note: Protection from cytopathic effect is a common read-out in antiviral testing.

Structures are written as SMILES.

By IC50 is commonly meant the point on the concentration scale where inhibition reaches its midpoint. The low end stands for greater potency, the high end for weaker potency. As usually defined, the EC50 is the midpoint of the concentration-response curve. Regarding `O=C(CN1C(=O)[C@@H](NC(=O)c2ccccc2)COc2ccccc21)N[C@@H](C[C@@H]1CCNC1=O)C(=O)COC(=O)c1c(Cl)cccc1Cl` [Compound 19], 620 ± 48 nM corresponded to half-maximal inhibition against SARS-CoV-2 Mpro (IC50). Further, the EC50 in test [1] is 25000 ± 5000 nM.

Usually inhibition stands for the drop in the measured response relative to a control, in per cent. As for `CCC(CC)COC(=O)[C@H](C)N[P@](=O)(OC[C@H]1O[C@@](C#N)(c2ccc3c(N)ncnn23)[C@H](O)[C@@H]1O)Oc1ccccc1` [Remdesivir, reference compound], the half-maximal effective concentration (EC50) in test [1] amounted to 2700 ± 500 nM. In test [1] (Severe acute respiratory syndrome coronavirus 2, Vero C1008, single treatment, 1 µM of remdesivir, 96 h, three independent experiments, read-out: inhibition of CPE in infected cells), the inhibition at 1 µM turned out to be 3.6 ± 3.1%.

On to `O=C(CN1C(=O)[C@@H](NC(=O)OCc2ccccc2)COc2ccccc21)N[C@@H](C[C@@H]1CCNC1=O)C(=O)COc1cc(C(F)(F)F)nn1-c1ccc(F)cc1` [Compound 21], for which, at SARS-CoV-2 Mpro, the IC50 worked out at 3100 nM. Also, the “fold less Mpro activity compared to 1” value on SARS-CoV-2 Mpro (ratio of Mpro IC50 versus compound 1) was “more than 10 fold”. Further, in test [1], the EC50 was 73500 ± 12400 nM.

As to `O=C(CN1C(=O)[C@@H](NC(=O)c2ccc3ccccc3n2)COc2ccccc21)N[C@@H](C[C@@H]1CCNC1=O)C(=O)COC(=O)c1c(Cl)cccc1Cl` [Compound 20], the IC50 against SARS-CoV-2 Mpro came out at 580 ± 40 nM. Moreover, the EC50 in test [1] was found to be 44500 ± 7400 nM.

For the compound `COc1cccc2[nH]c(C(=O)N[C@@H](CC(C)C)C(=O)N[C@@H](C[C@@H]3CCNC3=O)C(=O)COC(=O)c3c(Cl)cccc3Cl)cc12` [Compound 18, reference compound], on SARS-CoV-2 Mpro, the half-inhibitory concentration (IC50) worked out at 11 ± 0.7 nM. The EC50 in test [1] amounted to 3400 ± 1400 nM.

`CC(C)C[C@H](NC(=O)OCc1ccccc1)C(=O)N[C@@H](C[C@@H]1CCNC1=O)C(O)S(=O)(=O)O` (some centres unmarked) [GC-376, reference compound] had an IC50 against SARS-CoV-2 Mpro of 18 ± 1.5 nM. At SARS-CoV-2 Mpro (Mpro enzymatic assay), the “time to achieve maximum inhibition” value is given as ≤ 10 min. The EC50 in test [1] worked out at 1800 ± 400 nM.

Take `O=C(CN1C(=O)C(NC(=O)OCc2ccccc2)COc2ccccc21)NC(CC1CCNC1=O)C(=O)COC(=O)c1c(Cl)cccc1Cl` (centres unmarked) [Compound 1]: the IC50 at SARS-CoV-2 Mpro was 230 ± 18 nM. Further, the “fold less potent (Mpro) than compound 18” value at SARS-CoV-2 Mpro (ratio of Mpro IC50 versus Pfizer lead compound 18) is ~ 20 fold. Further, in test [1], the “fold reduced in activity compared to 18” value came out at 2.2 fold, the “fold reduced in activity compared to GC-376” value was 4.1 fold and the EC50 was 7500 ± 2000 nM. Besides, in test [1] (Severe acute respiratory syndrome coronavirus 2, Vero C1008, single treatment, 5 µM of 1, 96 h, three independent experiments, read-out: inhibition of CPE in infected cells), the inhibition at 5 µM came to 19.5 ± 13.7%.
